# Patent publication US4374149A, “α-{[(Arylalkyl)amino]alkyl}-4-hydroxy-3-(lower-alkylsul finyl)benzenemethanols” (Sterling Drug Inc., priority 1978, dated 1983)
# Several values for one entry are separate records, joined by “and”; a condition that tells them apart may be missing. Equal values may be shown once. Where a name gives a salt, the structure may show the parent alone.
# Key:
# [1] = tested on: systolic blood pressure; assay: Antihypertensive activity, reduction in systolic blood pressure, single oral medication, unanesthetized spontaneous hypertensive rat; assay type: in vivo; conditions: P.O., single dose, unanesthetized SH rat
# Experimental: Antihypertensive activity was determined on the basis of the observed reduction in systolic blood pressure measured according to the method of H. Kersten et al., J. Lab. and Clin. Med. 32, 1090 (1947) following a single oral medication in the unanesthetized spontaneous hypertensive rat described by Okamato et al., Japan Circulation J. 27, 282 (1963).
# ^a AHD40 = single oral dose required to induce a 40 mm. average
# [2] = tested on: blood pressure; assay: Antihypertensive activity, sustained lowering of blood pressure, repeated oral medication, unanesthetized trained renal hypertensive dog; assay type: in vivo; conditions: tid.
# Description: Antihypertensive activity was also judged on the basis of sustained reduction of blood pressure observed in the unanesthetized trained renal hypertensive dog following repeated oral medication according to the procedure described by Lape et al., Arch.
# ^b MED10 = minimum repeated oral daily dose required to effect a
# [3] = tested on: hind limb vasculature; assay: Vasodilator activity, perfusion pressure in hind limb vasculature of anesthetized dog; assay type: in vivo
# Method in brief: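 Perfusion pressure reduction in anesthetized dog hind limb; also percent perfusion-pressure reduction in isolated rabbit ear artery. AED50 is the approximate intraarterial dose causing a 50 [cut] reduction.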
# [4] = tested on: isolated rabbit ear artery; assay: Vasodilator activity, perfusion pressure in isolated rabbit ear artery
# Method in brief: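 Percent reduction in perfusion pressure of the isolated rabbit ear artery (De LaLande method) as the vasodilation read-out; vasodilator activity also judged from reduced hind-limb perfusion pressure in the anesthetized dog.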
# [5] = tested on: β-adrenergic; assay: β-adrenergic blocking activity, inhibition of isoproterenol-elicited heart rate increase in pentobarbitalized dog; assay type: in vivo; conditions: i.v., pentobarbitalized dog
# Experimental: The β-adrenergic blocking activity was determined in the pentobarbitalized dog as judged by the ability of the test compound to inhibit the elevation in heart rate elicited by a 0.5 mcg./kg. i.v. injection of isoproterenol.
# ^e AED50 = approximate intravenous dose required to cause 50%
# [6] = tested on: histamine-induced bronchoconstriction; assay: β-adrenergic stimulant activity, block of histamine-induced bronchoconstriction in the dog; assay type: in vivo
# [7] = tested on: Ouabain-induced arrhythmia; assay: Conversion of ouabain-induced arrhythmia in dogs; assay type: in vivo, mongrel dogs; design: key: active (A); inactive (I); conditions: 5 × 10^-6 M/kg.
# Experimental: (§1) The test procedures were carried out as follows.
# Na-pentobarbital supplements were given i.v. as needed.
# Both parameters were printed out on a Grass polygraph.
# [8] = tested on: Ba++-induced arrhythmia; assay: Conversion of Ba++-induced arrhythmia in rabbits; assay type: in vivo; design: key: active (A); inactive (I); conditions: 1 × 10^-5 M/kg.
# Experimental: as §1
# Adult rabbits or either sex weighing between 1.7 and 2.3 kg. were anesthetized with 30 to 35 mg./kg. Na-pentobarbital i.v. via a marginal ear vein. Monoplar ECG pin electrodes were inserted for a lead II display on a Model 5 Grass Polygraph using standard electrocardiographic procedures. A 23 ga. hypodermic needle, attached via a polyethylene catheter to a 10 cc. syringe, was inserted into the same vein as was used for anesthesia. A BaCl2.2H2 O solution in saline was then infused at a constant volume of 0.2 cc/min. from a Harvard Apparatus Model 600 infusion pump. This infusion was not stopped until termination of the experiment. In some studies barium chloride in distilled water was used without detectable differences. The standard rate of BaCl2.2H2 O infusion was established at 0.3 mg./kg./min. (1.2×10^-6 M/kg./min.), and the concentration was adjusted appropriately in each case to accommodate the weight of the rabbit.
# When the desired arrhythmia was established, the test compound was introduced as a water or saline solution into the marginal ear vein of the unused ear. The volume used was between 0.5 and 2.0 cc./kg. and was injected as a bolus over approximately 30 seconds. Deviations from standard vehicle, rate of injection and total volume administered were at the discretion of the operator. The standard initial dose of an unknown compound on the first rabbit was 5×10^-5 M/kg. In general, two to three rabbits were used to determine anti-arrhythmic activity and the dose range of activity; multiple doses were administered. Once activity and dose was indicated, two additional rabbits were employed to confirm anti-arrhythmic activity against a multifocal tachycardia.
# [9] = tested on: isolated cat atria; assay: Cardiotonic test procedure I, isolated cat atria; conditions: for Increase in right atrial force / Increase in right atrial rate: in vitro
# Experimental: The efficacy of this compound was judged, in vitro, on the basis of percent increase in contractile force in isolated cat atria and papillary muscle and, in vitro, on the basis of percent increase in cardiac contractile force in the intact anesthetized dog. Male cats weighing from 0.8 to 1.5 kg. were anesthetized with α-chloralose (80 mg./kg. i.p.). The chest was opened, the heart excised and the two atria dissected. A silk suture was tied to each of two opposite sides of the right atrium. One side of the atrium was tied to a glass rod and then mounted in a 50 ml. organ bath filled with Tyrode's solution. […] The transducer was then connected to a Grass polygraph and the force and rate of atrial contraction was recorded continuously. The left atrium was treated similarly using silver wire instead of silk sutures. The silver wire also served as a stimulating electrode. Both atria were mounted in the same bath. The right atrium was beating spontaneously due to the presence of the sinoatrial node, while the left atrium was stimulated electrically at a rate of 3 beats/sec. by suprathreshold rectangular pulses of 5 millisecond duration. The Tyrode's solution bathing the atria was of the following composition (in mM): NaCl 136.87, KCl 5.36, NaH2 PO4 0.41, CaCl2 1.80, MgCl2 6H2 O 1.05, NaHCO3 11.90, glucose 5.55 and EDTA 0.04. […] The preparation was left to equilibrate for one hour before any drug was added. The bathing fluid was changed 3 to 4 times during the equilibration time. At the end of equilibration period, the drug dissolved in a vehicle or the vehicle alone was added to the tissue bath and the full response recorded. The vehicle used was Tyrode' s solution to which, if required, sufficient acid was added to cause solution of the drug. […] Generally, a dose response study of at least 3 doses was done in the same preparation.
# [10] = tested on: papillary muscle; assay: Cardiotonic test procedure IB, isolated cat papillary muscle; conditions: in vitro
# Experimental: The efficacy of this compound was judged, in vitro, on the basis of percent increase in contractile force in isolated cat atria and papillary muscle and, in vitro, on the basis of percent increase in cardiac contractile force in the intact anesthetized dog. Male cats 0.8 to 1.5 kg. were anethetized with α-chloralose (80 mg./kg. i.p.). The chest was opened and the heart excised. The heart was dipped and shaken in Tyrode's solution for the removal of blood from the cavities. The right ventricle was then slit open and the small and thin (about 1 mm. in diameter and 4 to 7 mm. in length) papillary muscles were dissected out. A silver wire was attached to each of the two ends of the papillary muscle. The ventricular end was attached to a platinum electrode and mounted in a tissue bath containing Tyrode's solution described above. The silver wire on the valvular end of the muscle was attached to a force displacement transducer for the measurement of the force and rate of muscle contraction. The muscle was stimulated at a rate of 3 beats/sec. by suprathreshold rectangular pulses of 5 millisecond duration. The rest of the procedure was continued as described above.
# [11] = tested on: cardiac contractile force; assay: Cardiotonic test procedure II, intact anesthetized dog; assay type: in vivo, mongrel dogs; conditions: i.v. infusion 10 mcg./kg./min. over 3 hrs.
# Experimental: The efficacy of this compound was judged, in vitro, on the basis of percent increase in contractile force in isolated cat atria and papillary muscle and, in vitro, on the basis of percent increase in cardiac contractile force in the intact anesthetized dog. The in vivo test procedure used is described as follows: Mongrel dogs of both sexes and varying in weight from 9 to 15 kg. were anesthetized with 30 mg./kg. pentobarbital sodium administered intravenously. The trachea was exposed and cannulated. The tracheal cannula was then attached to a Harvard respiratory pump using room air. The right femoral artery and vein were cannulated. […] The venous cannula was used for the intravenous administration of drugs. Pin electrodes were attached to the right forelimb and left hindlimb. The electrodes were then connected to a Grass polygraph for the continuous recording of the standard limb lead II electrocardiogram. A ventro-dorsal incision at the third inter-costal space was made, the ribs laterally retracted and the pericardium slit open to expose the myocardium. The base of the aorta was dissected and a flow probe was fitted around it. The flow probe was attached to a square wave electromagnetic flowmeter (Carolina Medical Electronics). The flowmeter was then connected to a Grass polygraph for the continuous recording of aortic blood flow. This flow was used as an index of cardiac output (actual cardiac output is aortic blood flow+coronary blood flow). Cardiac contractile force was measured by suturing a Walton-Brodie strain gauge to the wall of the right ventricle. At the end of the surgical procedure, the animal was left to rest and equilibrate for one hour with continuous recording of blood pressure, EKG, cardiac contractile force and aortic blood flow. After the equilibration period, the vehicle or the drug dissolved in the vehicle was administered by intravenous infusion (i.v. inf.), intravenous bolus (i.v. bol.) or intraduodenally (i.d.) and the response of all the parameters measured to drug administration was recorded continuously for different periods of times depending on the route of drug administration. When the route of administration was i.v. inf., the drug was administered until a peak effect was reached and infusion was then maintained for ten minutes. The above-described test systems were standardized using dopamine.
# [12] = 7-day oral LD50 in rats; assay type: in vivo
# [13] = Local anesthetic activity (method of Bulbring and Wadja); assay type: in vivo; conditions: compared with procaine
# Experimental: D. Following a procedure similar to that described in Example 2G but using 2.5 g. (0.0049 mole) of dextrorotatory 4-hydroxy-α-<{[3-(4-methoxyphenyl)-1-methylpropyl]amino}methyl>- 3-(methylthio)benzenemethanol acetate salt (m.p. 124°-126° C., [α]D^25 =+7.7°) and 375 mg. of commercial 40% peracetic acid there was obtained 2.0 g. of 4-hydroxy-α-<{[3-(4-methoxyphenyl)-1-methylpropyl]amino}methyl>-3-(methylsulfinyl)benzenemethanol acetate salt as an amorphous yellow powder [α]D^25 =+4.2° containing a mixture of 4 diastereomeric sulfoxides. […] Exp. Therap. 85, 78 (1945).
smiles,measurement,setting,value
"COc1ccc(CC(C)NCC(O)c2ccc(O)c([S+](C)[O-])c2)cc1 (stereo not drawn) [Example 1I, 4-hydroxy-α-<{[2-(4-methoxyphenyl)-1-methylethyl]amino}methyl>-3-(methylsulfinyl)benzenemethanol hydrochloride]",Antihypertensive activity SH Rat AHD40 (single oral dose required to induce a 40 mm. average reduction in systolic blood pressure),[1],2.0 mg/kg
same,Renal Hypertensive Dog MED10 (minimum repeated oral daily dose for sustained lowering of blood pressure of 10% or greater),[2],1.25 mg/kg
same,ED50,"[3]; Canis lupus familiaris, read-out: Vasodilator activity Dog-Leg Perfusion AED50 (approximate intraarterial dose for 50 reduction in perfusion pressure)",0.25 mg/kg
same,Rabbit Ear Artery vasodilation (percentage reduction in perfusion pressure from control level),"[4]; 6.25 × 10^-5 M, 62.5 µM",53%
same,Dog β-blockade AED50 (approximate intravenous dose for 50% inhibition of isoproterenol-elicited heart rate increase),[5],0.04 mg/kg
same,β-adrenergic stimulant activity,[6],ability to block histamine-induced bronchoconstriction in the dog
"COc1ccc(CCC(C)NCC(O)c2ccc(O)c([S+](C)[O-])c2)cc1 (stereo not drawn) [Example 5H, 4-hydroxy-α-<{[3-(4-methoxyphenyl)-1-methylpropyl]amino}methyl>-3-(methylsulfinyl)benzenemethanol hydrochloride]",Rabbit Ear Artery vasodilation (percentage reduction in perfusion pressure from control level),"[4]; 1 × 10^-4 M, 100 µM, hydrochloride",64%
same,Conversion of Ouabain-induced Arrhythmia,[7],A
same,Conversion of Ba++-induced Arrhythmia,[8],A
same,Increase in right atrial force,[9]; 1 mg./ml.,52%
same,Increase in right atrial rate,[9]; 1 mg./ml.,62%
same,Increase in right atrial force,[9]; 10 mcg./ml.,46%
same,Increase in right atrial rate,[9]; 10 mcg./ml.,53%
same,Cardiotonic activity (in words),[9]; one or more of the cardiotonic test procedures,useful cardiotonic activity
same,Decrease in papillary muscle force,[10]; 1 mg./ml.,14%
same,Decrease in papillary muscle force,[10]; 10 mcg./ml.,12%
same,Change in heart rate,[11]; 2 of 3 dogs,no significant change in heart rate
same,Maximum increase in cardiac contractile force,"[11]; 2 of 3 dogs, I, hydrochloride",25% and 42%
same,Decrease in contractile force,[11]; remaining dog,30%
same,Decrease in heart rate,[11]; remaining dog,33%
"COc1ccc(CCC(C)NCC(O)c2ccc(O)c([S+](C)[O-])c2)cc1 (stereo not drawn) [Example 5E, 4-hydroxy-α-<{[3-(4-methoxyphenyl)-1-methylpropyl]amino}methyl>-3-(methylsulfinyl)benzenemethanol acetate salt]",Body weight and gross tissue changes,[12]; animals sacrificed 7 days post-medication,No changes in body weight and no gross tissue changes
same,7-day oral LD50,"[12]; oral, rats, two separate batches, acetate salt, 10080 min",1940 mg/kg
same,LD50 at 168 h,"[12]; rat, in vivo, po, rats, two separate batches",1850 mg/kg
"COc1ccc(CCC(C)NCC(O)c2ccc(O)c([S+](C)[O-])c2)cc1 (stereo not drawn) [Example 5D, 4-hydroxy-α-<{[3-(4-methoxyphenyl)-1-methylpropyl]amino}methyl>-3-(methylsulfinyl)benzenemethanol acetate salt]",Antihypertensive activity SH Rat AHD40 (single oral dose required to induce a 40 mm. average reduction in systolic blood pressure),[1]; acetate salt,3.0 mg/kg
same,Renal Hypertensive Dog MED10 (minimum repeated oral daily dose for sustained lowering of blood pressure of 10% or greater),[2],0.0316 mg/kg
same,Vasodilator activity Dog-Leg Perfusion AED50 (approximate intraarterial dose for 50 reduction in perfusion pressure),"[3]; intraarterial, anesthetized dog hind limb, acetate salt",0.5 mg/kg
same,Rabbit Ear Artery vasodilation (percentage reduction in perfusion pressure from control level),"[4]; 5 × 10^-5 M, 50 µM, acetate salt",49%
same,Dog β-blockade AED50 (approximate intravenous dose for 50% inhibition of isoproterenol-elicited heart rate increase),[5]; acetate salt,0.125 mg/kg
same,Local anesthetic activity,[13],equi-active with procaine as a local anesthetic
